Data as given in patent US9441012B2, “Fluorinated epoxyketone-based compounds and uses thereof as proteasome inhibitors” (FLUORINOV PHARMA INC., priority 2012, dated 2016).

Experiments:
Test in all cases: NCI 60 human tumor cell line screen (SRB)
Type in all cases: cell-based
[1] = tested on: ACHN; details: ACHN (Renal Cancer); 48 h
Excerpt: (§1) Representative compounds of Formula I were screened using the National Cancer Institute (NCI) screening panel, which consists of a panel of 60 different human tumor cell lines, representing leukemia [CCRF-CEM, HL-60 (TB), K-562, MOLT-4, SR], melanoma [LOX IMVI, MALME-3M, M14, SMDA-MB-435, SK-MEL-2, SK-MEL-28, SK-MEL-5, UACC-257 and UACC-62] and cancers of the lung [A549/ATCC, EKVX, HOP-62, HOP-93, NCI-H226, NCI-H23, NCI-H322M, NCI-H460], colon [COLO 205, HCT-116, HCT-15, HT29, KM12, SW-620], brain [SF-268, SF-295, SF-539, SNB-19, SNB-75, U251], ovary [IGROV1, OVCAR-3, OVCAR-4, OVCAR-5, OVCAR-8, NCI/ADR-RES, SK-OV-3], breast [MCF7, MDA-MB-231, BT-549, T-47D, MDA-MB-468], prostate [PC-3, DU-145], and renal[786-0, A498, ACHN, CAKI-1, RXF-393, SN12C, TK-10, UO-31] cancers.
(§2) After 24 h, two plates of each cell line are fixed in situ with TCA, to represent a measurement of the cell population for each cell line at the time of drug addition (Tz). Experimental drugs are solubilised in dimethyl sulfoxide at 400-fold the desired final maximum test concentration and stored frozen prior to use. At the time of drug addition, an aliquot of frozen concentrate is thawed and diluted to twice the desired final maximum test concentration with complete medium containing 50 μg/ml gentamicin. Additional four, 10-fold or ½ log serial dilutions are made to provide a total of five drug concentrations plus control. Aliquots of 100 μl of these different drug dilutions are added to the appropriate microtiter wells already containing 100 μl of medium, resulting in the required final drug concentrations.
(§3) Following drug addition, the plates are incubated for an additional 48 h at 37° C., 5% CO2, 95% air, and 100% relative humidity. For adherent cells, the assay is terminated by the addition of cold TCA (trichloroacetic acid). Cells are fixed in situ by the gentle addition of 50 μl of cold 50% (w/v) TCA (final concentration, 10% TCA) and incubated for 60 minutes at 4° C. The supernatant is discarded, and the plates are washed five times with tap water and air dried. Sulforhodamine B (SRB) solution (100 μl) at 0.4% (w/v) in 1% acetic acid is added to each well, and plates are incubated for 10 minutes at room temperature. After staining, unbound dye is removed by washing five times with 1% acetic acid and the plates are air dried. Bound stain is subsequently solubilised with 10 mM trizma base, and the absorbance is read on an automated plate reader at a wavelength of 515 nm. For suspension cells, the methodology is the same except that the assay is terminated by fixing settled cells at the bottom of the wells by gently adding 50 μl of 80% TCA (final concentration, 16% TCA). Using the seven absorbance measurements [time zero, (Tz), control growth, (C), and test growth in the presence of drug at the five concentration levels (Ti)], the percentage growth is calculated at each of the drug concentration levels. Percentage growth inhibition is calculated as: [(Ti−Tz)/(C−Tz)]×100 for concentrations in which Ti>/=Tz and [(Ti−Tz)/Tz]×100 for concentrations in which Ti<Tz.
(§4) Three dose response parameters are calculated for each experimental agent. Growth inhibition of 50% (GI50) is calculated from [(Ti−Tz)/(C−Tz)]100=50, which is the drug concentration resulting in a 50% reduction in the net protein increase (as measured by SRB staining) in control cells during the drug incubation. The drug concentration resulting in total growth inhibition (TGI) is calculated from Ti=Tz. The LC50 (concentration of drug resulting in a 50% reduction in the measured protein at the end of the drug treatment as compared to that at the beginning) indicating a net loss of cells following treatment is calculated from [(Ti−Tz)/Tz]×100=−50. Values are calculated for each of these three parameters if the level of activity is reached. However, if the effect is not reached or is exceeded, the value for that parameter is expressed as greater or less than the maximum or minimum concentration tested.

[2] = tested on: COLO 205; details: COLO 205 (Colon Cancer); 48 h
Excerpt: as §1, §2, §3, §4

[3] = tested on: HCT-116; details: HCT-116 (Colon Cancer); 48 h
Excerpt: as §1, §2, §3, §4

[4] = tested on: MDA-MB-468; details: MDA-MB-468 (Breast Cancer); 48 h
Excerpt: as §1, §2, §3, §4

[5] = tested on: OVCAR-5; details: OVCAR-5 (Ovarian Cancer); 48 h
Excerpt: as §1, §2, §3, §4

[6] = tested on: OVCAR-8; details: OVCAR-8 (Ovarian Cancer); 48 h
Excerpt: as §1, §2, §3, §4

[7] = tested on: SF-295; details: SF-295 (CNS Cancer); 48 h
Excerpt: as §1, §2, §3, §4

[8] = tested on: SK-MEL-28; details: SK-MEL-28 (Melanoma); 48 h
Excerpt: as §1, §2, §3, §4

[9] = tested on: SK-MEL-5; details: SK-MEL-5 (Melanoma); 48 h
Excerpt: as §1, §2, §3, §4

[10] = tested on: SK-OV-3; details: SK-OV-3 (Ovarian Cancer); 48 h
Excerpt: as §1, §2, §3, §4

[11] = tested on: SNB-75; details: SNB-75 (CNS Cancer); 48 h
Excerpt: as §1, §2, §3, §4

[12] = tested on: U251; details: U251 (CNS Cancer); 48 h
Excerpt: as §1, §2, §3, §4

| SMILES | Log10GI50 [1] | Log10LC50 [1] | Log10TGI50 [1] | Log10GI50 [2] | Log10LC50 [2] | Log10TGI50 [2] | Log10GI50 [3] | Log10LC50 [3] | Log10TGI50 [3] | Log10GI50 [4] | Log10TGI50 [4] | Log10GI50 [5] | Log10LC50 [5] | Log10TGI50 [5] | Log10GI50 [6] | Log10LC50 [6] | Log10TGI50 [6] | Log10GI50 [7] | Log10LC50 [7] | Log10TGI50 [7] | other results |
| --- | --- | --- | --- | --- | --- | --- | --- | --- | --- | --- | --- | --- | --- | --- | --- | --- | --- | --- | --- | --- | --- |
| C[C@]1(C(=O)[C@H](Cc2ccccc2)NC(=O)[C@H](COC(F)F)NC(=O)[C@H](COC(F)F)NC(=O)CN2CCOCC2)CO1 [Example 26, (S)-N-{(S)-1-[(S)-1-Benzyl-2-((R)-2-methyl-oxiranyl)-2-oxo-ethylcarbamoyl]-2-difluoromethoxyethyl}-3-difluoromethoxy-2-(2-morpholin-4-yl-acetylamino)-propio-namide] | −7.01 | >−4.00 | >−4.00 | −7.39 | −6.21 | −6.76 | −7.70 | −6.55 | −7.30 | −7.54 | −6.96 | −7.36 | >−4.00 | −6.44 | −7.32 | >−4.00 | −6.41 | −7.68 | −6.49 | −7.26 | Log10LC50 [4]: >−4.00; Log10GI50 [8]: −7.38; Log10LC50 [8]: −4.82; Log10TGI50 [8]: −6.69; Log10GI50 [9]: −7.60; Log10LC50 [9]: −6.49; Log10TGI50 [9]: −7.17; Log10GI50 [10]: −7.30; Log10TGI50 [10]: −6.60; Log10GI50 [11]: −7.71; Log10LC50 [11]: −6.35; Log10TGI50 [11]: −7.24; Log10GI50 [12]: −7.44; Log10LC50 [12]: >−4.00; Log10TGI50 [12]: −6.75 |
| CC(C)C[C@H](NC(=O)[C@H](Cc1ccccc1)NC(=O)[C@H](COC(F)F)NC(=O)CN1CCOCC1)C(=O)[C@@]1(C)CO1 [Example 25, (2S)-2-[[(2S)-3-(difluoromethoxy)-2-[(2-morpholinoacetyl)amino]propanoyl]amino]-N-[(1S)-3-methyl-1-[(2R)-2-methyloxirane-2-carbonyl]butyl]-3-phenyl-propanamide] | −7.01 | >−4.00 | >−4.00 | −7.39 | −6.21 | −6.76 | −7.70 | −6.55 | −7.30 | −7.54 | −6.96 | −7.36 | >−4.00 | −6.44 | −7.32 | >−4.00 | −6.41 | −7.68 | −6.49 | −7.26 | Log10LC50 [4]: >−4.00; Log10GI50 [8]: −7.38; Log10LC50 [8]: −4.82; Log10TGI50 [8]: −6.69; Log10GI50 [9]: −7.60; Log10LC50 [9]: −6.49; Log10TGI50 [9]: −7.17; Log10GI50 [10]: −7.30; Log10TGI50 [10]: −6.60; Log10GI50 [11]: −7.71; Log10LC50 [11]: −6.35; Log10TGI50 [11]: −7.24; Log10GI50 [12]: −7.44; Log10LC50 [12]: >−4.00; Log10TGI50 [12]: −6.75 |
| C[C@]1(C(=O)[C@H](Cc2ccccc2)NC(=O)[C@H](Cc2ccccc2)NC(=O)[C@H](COC(F)F)NC(=O)CN2CCOCC2)CO1 [Example 29] | −6.59 | >−4.00 | >−4.00 | −6.90 | −5.34 | −6.32 | −7.46 | >−4.00 | −5.91 | −6.67 | −6.10 | −6.65 | >−4.00 | −5.58 | −6.59 | >−4.00 | >−4.00 | −7.19 | −5.94 | −6.55 | Log10LC50 [4]: >−4.00; Log10GI50 [8]: −7.13; Log10LC50 [8]: >−4.00; Log10TGI50 [8]: −6.34; Log10GI50 [9]: −7.22; Log10LC50 [9]: −6.20; Log10TGI50 [9]: −6.66; Log10GI50 [10]: −6.46; Log10LC50 [10]: >−4.00; Log10TGI50 [10]: −5.78; Log10GI50 [11]: −6.83; Log10LC50 [11]: −5.96; Log10TGI50 [11]: −6.41; Log10GI50 [12]: −6.98; Log10LC50 [12]: >−4.00; Log10TGI50 [12]: −5.70 |
| Cc1ncc(C(=O)N[C@@H](COC(F)F)C(=O)N[C@@H](COC(F)F)C(=O)N[C@@H](Cc2ccccc2)C(=O)[C@@]2(C)CO2)s1 [Example 1, 2-methyl-thiazole-5-carboxylic acid ((S)-1-{(S)-1-[(S)-1-benzyl-2-((R)-2-methyloxiranyl)-2-oxo-ethylcarbamoyl]-2-difluoromethoxyethylcarbamoyl}-2-difluoromethoxyethyl)-amide] | −6.53 | >−4.00 | −4.81 | −6.22 | >−4.00 | −4.85 | −7.32 | −6.17 | −6.71 | −6.75 | −6.32 | −6.18 | −4.17 | −5.30 | −5.80 | >−4.00 | >−4.00 | −7.17 | −4.88 | −6.24 | Log10GI50 [8]: −6.85; Log10LC50 [8]: −4.69; Log10TGI50 [8]: −6.12; Log10GI50 [9]: −7.15; Log10LC50 [9]: −5.47; Log10TGI50 [9]: −6.34; Log10GI50 [10]: −6.06; Log10LC50 [10]: >−4.00; Log10TGI50 [10]: >−4.00; Log10GI50 [11]: −6.81; Log10LC50 [11]: >−4.00; Log10TGI50 [11]: −6.24; Log10GI50 [12]: −6.55; Log10LC50 [12]: >−4.00; Log10TGI50 [12]: −4.94 |
